Experimental data taken from PMC6419571, “Discovery and lead optimisation of a potent, selective and orally bioavailable RARβ agonist for the potential treatment of nerve injury” (Bioorganic & Medicinal Chemistry Letters, 2019).

Experiments:
Cyp450 3A4 = Cyp450 3A4 (Homo sapiens, UniProt P08684); assay: Cyp450 inhibition, 3A4; format: in vitro ADME; conditions: isoform 3A4
Cyp450 2C19 = Cyp450 2C19 (Homo sapiens, UniProt P33261); assay: Cyp450 inhibition, 2C19; format: in vitro ADME; conditions: isoform 2C19
Sequence of Cyp450 2C19 (P33261 whole entry, canonical isoform): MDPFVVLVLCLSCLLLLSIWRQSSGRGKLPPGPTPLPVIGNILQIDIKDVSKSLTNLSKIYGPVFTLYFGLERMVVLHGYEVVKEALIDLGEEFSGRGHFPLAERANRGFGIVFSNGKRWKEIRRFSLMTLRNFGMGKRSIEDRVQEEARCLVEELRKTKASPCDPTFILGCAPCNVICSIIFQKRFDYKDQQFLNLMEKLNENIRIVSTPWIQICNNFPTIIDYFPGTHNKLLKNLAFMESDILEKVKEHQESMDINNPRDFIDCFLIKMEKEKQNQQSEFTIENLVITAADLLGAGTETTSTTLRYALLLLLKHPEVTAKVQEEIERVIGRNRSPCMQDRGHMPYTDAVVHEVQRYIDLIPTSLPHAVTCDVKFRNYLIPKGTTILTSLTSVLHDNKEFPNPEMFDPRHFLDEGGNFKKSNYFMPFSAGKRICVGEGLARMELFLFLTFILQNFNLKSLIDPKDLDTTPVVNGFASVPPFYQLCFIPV

avulsed rats = assay: Rodent model of avulsion: sensory and locomotor tasks; format: in vivo, rat; conditions: 3 mg/kg, po, three times a week
Method: Rats were trained for two weeks prior to surgery in behavioural tasks and scores were recorded the day before surgery, the day after surgery and then weekly, for four weeks. Surgery was performed as previously described.[11], [12] In a sticky tape task, the time taken to sense and remove the tape from the paw of the lesioned forelimbs was measured. […] In locomotor tasks, the number of foot slips in a horizontal ladder made by the injured forelimb of the compound 10 treated rats was also measured. […] Further details and data on an in vivo model of crush injury will be presented in due course.
Fig. 2 Effects of oral administration of compound 10 in sensory and locomotor functions in avulsed rats. Dose 3 mg/kg, po, three times a week, every other day. Data represent mean ± SEM of n = 8, **p ≤ 0.005, ***p ≤ 0.001. Two-way repeated-measures ANOVA, Tukey’s post-hoc test.

RARβ = biological target: T1, RARβ (Homo sapiens, UniProt P10826); assay: Transactivation against the human RAR ligand-binding domains; format: cell-based
T1 construct: expressed in transfected cells
T1 sequence (P10826 183-417 limits assumed): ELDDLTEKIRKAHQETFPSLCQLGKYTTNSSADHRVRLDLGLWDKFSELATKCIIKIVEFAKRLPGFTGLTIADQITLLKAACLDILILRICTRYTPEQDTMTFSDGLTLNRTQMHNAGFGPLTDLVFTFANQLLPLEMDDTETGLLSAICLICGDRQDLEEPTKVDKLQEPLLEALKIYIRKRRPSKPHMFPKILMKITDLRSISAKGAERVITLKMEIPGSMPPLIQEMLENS
From the text: The more drug-like template present in 10 translates into a good in vitro and in vivo profile for this RARβ agonist (Table 5).

[1] = Human microsomal stability (Clint); format: in vitro ADME
[2] = LogD by shake flask method; format: physicochemical; conditions: pH 7.4
Cerebellar neurons = assay: Neurite outgrowth in cerebellar cultures on CHO-MAG monolayer; format: cell-based; conditions: 24 hr treatment, 1 × 10^−8–1 × 10^−6 M
Method: Compound 10 was evaluated for neurite outgrowth/branching in cerebellar cultures. Cerebellar cultures grown on a monolayer of CHO-MAG were treated with RARβ agonists and neurite outgrowth was assessed by immunostaining and neurite length quantification.[10]
Fig. 1 Effects of RARβ agonists 10 on neurite outgrowth. Cerebellar neurons grown on a monolayer of CHO-MAG cells were treated for 24 hr with either vehicle (V) or increasing doses of RARβ agonists (1 × 10^−8–1 × 10^−6 M). Both RARβ agonists increase neurite outgrowth in a dose dependant manner. Results are means from 3 independent experiments. Statistical analysis was done using Student’s t-test between vehicle and each drug’s highest dose. Error bars are SEM and **p ≤ 0.001, *p ≤ 0.01.

bacterial = assay: Bacterial cytotoxicity tests; format: cell-based; conditions: up to 100 μM
CHO-K1 cells = assay: In vitro micronucleus test; format: cell-based; conditions: presence and absence of S9
From the text: Similar, negative results were obtained in an in vitro micronucleus test in CHO-K1 cells, in both the presence and absence of S9.

Sequence of Cyp450 3A4 (P08684 whole entry, canonical isoform): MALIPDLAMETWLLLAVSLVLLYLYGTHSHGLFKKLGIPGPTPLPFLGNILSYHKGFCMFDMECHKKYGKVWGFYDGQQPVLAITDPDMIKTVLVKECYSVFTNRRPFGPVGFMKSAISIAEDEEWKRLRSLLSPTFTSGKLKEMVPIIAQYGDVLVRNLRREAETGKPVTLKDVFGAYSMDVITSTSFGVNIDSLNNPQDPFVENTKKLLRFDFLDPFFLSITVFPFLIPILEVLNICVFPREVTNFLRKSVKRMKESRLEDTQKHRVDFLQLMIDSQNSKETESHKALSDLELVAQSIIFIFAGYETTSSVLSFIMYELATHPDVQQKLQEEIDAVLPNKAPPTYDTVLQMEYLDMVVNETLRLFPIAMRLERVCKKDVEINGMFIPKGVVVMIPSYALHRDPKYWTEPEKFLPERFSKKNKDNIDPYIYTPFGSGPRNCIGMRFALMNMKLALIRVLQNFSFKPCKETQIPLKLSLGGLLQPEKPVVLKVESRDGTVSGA

Cc1ccc(C)c2oc(-c3nc(-c4ccc(C(=O)O)cc4)no3)cc12 [Compound 10, 4-(5-(4,7-dimethylbenzofuran-2-yl)-1,2,4-oxadiazol-3-yl)benzoic acid]
IC50 (Cyp450 3A4): > 25 µM
IC50 (Cyp450 2C19): > 25 µM
sticky tape task latency (sense and remove tape), injured forelimb vs vehicle (avulsed rats; from week three): significantly lower latencies
number of foot slips in horizontal ladder, injured forelimb vs vehicle (avulsed rats; from week two): markedly lower
fold selectivity for RARβ over RARα (RARβ): 23 fold
fold selectivity for RARβ over RARγ (RARβ): 5 fold
EC50 (RARβ; read-out: RARβ potency EC50): 0.00205 µM
stability in human microsomes (in words) [1]: very high stability
microsomal CLint ([1]; human microsomes, 37 °C, NADPH, 45 min, mean of 5 experiments): < 1 µL/min/mg
logD [2]: 2.8
neurite length / outgrowth (Cerebellar neurons): increased neurite length in a dose dependant manner
bacterial cytotoxicity (bacterial): inactive
in vitro micronucleus test result (CHO-K1 cells): negative
